Measurements taken from patent US6525001B1, “Substituted pyrimidine and pyridine herbicides” (Mid-American Commercialization Corporation, priority 1997, dated 2003).

What was measured:
Format in all cases: in vivo
[1] = test system: corn (Zea mays); experiment: Test B pre-/postemergence; set-up: key: 0 is no effect; 10 is complete control; details: for Corn plant response rating: Preemergence
Source text: (§1) Seeds of bedstraw (Galium aparine), blackgrass (Alopecurus myosuroides), broadleaf signalgrass (Brachiaria decumbens), cocklebur (Xanthium strumarium), corn (Zea mays), crabgrass (Digitaria sanguinalis), giant foxtail (Setaria faberii), lambsquarters (Chenopodium album), momingglory (Ipomoea hederacea), pigweed (Amaranthus retroflexus), rape (Brassica napus), soybean (Glycine max), sugar beet (Beta vulgaris), velvetleaf (Abutilon theophrasti), wheat (Triticum aestivum), wild oat (Avena fatua) and purple nutsedge (Cyperus rotundus) tubers were planted and treated preemergence with test chemicals formulated in a non-phytotoxic solvent mixture which included a surfactant.
(§2) At the same time, these crop and weed species were also treated with postemergence applications of test chemicals formulated in the same manner. Plants ranged in height from 2 to 18 cm (1- to 4-leaf stage) for postemergence treatments. Plant species in the flood test consisted of rice (Oryza sativa), smallflower flatsedge (Cyperus difformis), duck salad (Heteranthera limosa) and bamyardgrass (Echinochloa crus-galli) grown to the 2-leaf stage for testing. Treated plants and controls were maintained in a greenhouse for twelve to sixteen days, after which all species were compared to controls and visually evaluated. Plant response ratings, summarized in Table B, are based on a scale of 0 to 10 where 0 is no effect and 10 is complete control. A dash (−) response means no test result.

[2] = test system: rape (Brassica napus); experiment: Test B pre-/postemergence; set-up: key: 0 is no effect; 10 is complete control
Source text: as §1, §2

[3] = test system: soybean (Glycine max); experiment: Test B pre-/postemergence; set-up: key: 0 is no effect; 10 is complete control
Source text: as §1, §2

[4] = test system: cocklebur (Xanthium strumarium); experiment: Test B pre-/postemergence; set-up: key: 0 is no effect; 10 is complete control; details: for Plant response rating, Cocklebur: Postemergence; for Cocklebur plant response rating: Preemergence
Source text: as §1, §2

[5] = test system: pigweed (Amaranthus retroflexus); experiment: Test B pre-/postemergence; set-up: key: 0 is no effect; 10 is complete control
Source text: as §1, §2

[6] = test system: blackgrass (Alopecurus myosuroides); experiment: Test B pre-/postemergence; set-up: key: 0 is no effect; 10 is complete control; details: for Blackgrass plant response rating: Preemergence
Source text: as §1, §2

[7] = test system: sugar beet (Beta vulgaris); experiment: Test B pre-/postemergence; set-up: key: 0 is no effect; 10 is complete control
Source text: as §1, §2

[8] = test system: broadleaf signalgrass (Brachiaria decumbens); experiment: Test B pre-/postemergence; set-up: key: 0 is no effect; 10 is complete control; details: for B. signalgrass plant response rating: Preemergence
Source text: as §1, §2

[9] = test system: wheat (Triticum aestivum); experiment: Test B pre-/postemergence; set-up: key: 0 is no effect; 10 is complete control
Source text: as §1, §2

[10] = test system: crabgrass (Digitaria sanguinalis); experiment: Test B pre-/postemergence; set-up: key: 0 is no effect; 10 is complete control; details: for Crabgrass plant response rating: Preemergence
Source text: as §1, §2

[11] = test system: wild oat (Avena fatua); experiment: Test B pre-/postemergence; set-up: key: 0 is no effect; 10 is complete control
Source text: as §1, §2

[12] = test system: velvetleaf (Abutilon theophrasti); experiment: Test B pre-/postemergence; set-up: key: 0 is no effect; 10 is complete control
Source text: as §1, §2

[13] = test system: giant foxtail (Setaria faberii); experiment: Test B pre-/postemergence; set-up: key: 0 is no effect; 10 is complete control
Source text: as §1, §2

[14] = test system: bedstraw (Galium aparine); experiment: Test B pre-/postemergence; set-up: key: 0 is no effect; 10 is complete control; details: for Bedstraw plant response rating: Preemergence
Source text: as §1, §2

[15] = test system: momingglory (Ipomoea hederacea); experiment: Test B pre-/postemergence; set-up: key: 0 is no effect; 10 is complete control
Source text: as §1, §2

[16] = test system: purple nutsedge (Cyperus rotundus); experiment: Test B pre-/postemergence; set-up: key: 0 is no effect; 10 is complete control
Source text: as §1, §2

[17] = test system: rice (Oryza sativa); experiment: Test B flood test
In short: (§3)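 Read-out is a visual response score from 0 (no effect) to 10 (complete control), assigned by comparison with untreated controls. Treatment was applied at the 2-leaf stage, and plants stayed in the greenhouse for twelve to sixteen days before scoring.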

[18] = test system: smallflower flatsedge (Cyperus difformis); experiment: Test B flood test
In short: as §3

[19] = test system: bamyardgrass (Echinochloa crus-galli); experiment: Test B flood test
In short: as §3

[20] = test system: duck salad (Heteranthera limosa); experiment: Test B flood test
In short: as §3

[21] = Rate 250 g/ha, Postemergence (so in the source)
[22] = Rate 62 g/ha, Postemergence (flood test)
[23] = Rate 125 g/ha, Postemergence section (flood test species)
[24] = Rate 250 g/ha, Postemergence (flood test species)
[25] = Rate 125 g/ha, Postemergence, flood test

Cc1cnc(-c2ccc(Cl)cc2)nc1Cc1cccc(C(F)(F)F)c1 [Compound 28]
Plant response rating, Corn ([1]; Rate 62 g/ha, Postemergence): 2 | Corn plant response rating ([1]; Rate 62 g/ha): 0 | Plant response rating, Corn ([1]; Rate 125 g/ha, Postemergence): 3 | Corn plant response rating ([1]; Rate 125 g/ha): 0 | Plant response rating, Corn ([1]; Rate 250 g/ha, Postemergence): 4 | Plant response rating, Corn [1, 21]: 1 | Plant response rating, Rape ([2]; Rate 62 g/ha, Postemergence): 9 | Rape plant response rating ([2]; Rate 62 g/ha, Preemergence): 1 | Rape plant response rating ([2]; Rate 125 g/ha, Postemergence): 9 | Rape plant response rating ([2]; Rate 125 g/ha, Preemergence): 2 | Plant response rating, Rape ([2]; Rate 250 g/ha, Postemergence): 10 | Plant response rating, Rape [2, 21]: 4 | Plant response rating, Soybean ([3]; Rate 62 g/ha, Postemergence): 4 | Soybean plant response rating ([3]; Rate 62 g/ha, Preemergence): 0 | Soybean plant response rating ([3]; Rate 125 g/ha, Postemergence): 7 | Plant response rating, Soybean ([3]; Rate 125 g/ha, Preemergence): 0 | Plant response rating, Soybean ([3]; Rate 250 g/ha, Postemergence): 7 | Plant response rating, Soybean [3, 21]: 1 | Plant response rating, Cocklebur ([4]; Rate 62 g/ha): 7 | Cocklebur plant response rating ([4]; Rate 62 g/ha): 0 | Plant response rating, Cocklebur ([4]; Rate 125 g/ha): 8 | Cocklebur plant response rating ([4]; Rate 125 g/ha): 0 | Plant response rating, Cocklebur ([4]; Rate 250 g/ha): 8 | Plant response rating, Redroot pigweed ([5]; Rate 62 g/ha, Postemergence): 8 | Redroot pigweed plant response rating ([5]; Rate 62 g/ha, Preemergence): 5 | Redroot pigweed plant response rating ([5]; Rate 125 g/ha, Postemergence): 9 | Redroot pigweed plant response rating ([5]; Rate 125 g/ha, Preemergence): 6 | Plant response rating, Redroot pigweed ([5]; Rate 250 g/ha, Postemergence): 10 | Plant response rating, Redroot pigweed [5, 21]: 7 | Plant response rating, Blackgrass ([6]; Rate 62 g/ha, Postemergence): 4 | Blackgrass plant response rating ([6]; Rate 62 g/ha): 2 | Plant response rating, Blackgrass ([6]; Rate 125 g/ha, Postemergence): 5 | Blackgrass plant response rating ([6]; Rate 125 g/ha): 5 | Plant response rating, Blackgrass ([6]; Rate 250 g/ha, Postemergence): 8 | Plant response rating, Blackgrass [6, 21]: 6 | Plant response rating, Sugarbeets ([7]; Rate 62 g/ha, Postemergence): 9 | Sugarbeets plant response rating ([7]; Rate 62 g/ha, Preemergence): 0 | Sugarbeets plant response rating ([7]; Rate 125 g/ha, Postemergence): 9 | Plant response rating, Sugarbeets ([7]; Rate 125 g/ha, Preemergence): 2 | Plant response rating, Sugarbeets ([7]; Rate 250 g/ha, Postemergence): 10 | Plant response rating, Sugarbeets [7, 21]: 3 | Plant response rating, B. signalgrass ([8]; Rate 62 g/ha, Postemergence): 4 | B. signalgrass plant response rating ([8]; Rate 62 g/ha): 2 | Plant response rating, B. signalgrass ([8]; Rate 125 g/ha, Postemergence): 5 | B. signalgrass plant response rating ([8]; Rate 125 g/ha): 5 | Plant response rating, B. signalgrass ([8]; Rate 250 g/ha, Postemergence): 9 | Plant response rating, B. signalgrass ([8]; Rate 250 g/ha, Postemergence as printed in head r139 (second section for compounds 26-50)): 9 | Wheat plant response rating ([9]; Rate 62 g/ha, Postemergence): 3 | Wheat plant response rating ([9]; Rate 62 g/ha, Preemergence): 0 | Wheat plant response rating ([9]; Rate 125 g/ha, Postemergence): 4 | Plant response rating, Wheat ([9]; Rate 125 g/ha, Preemergence): 0 | Plant response rating, Wheat ([9]; Rate 250 g/ha, Postemergence): 5 | Plant response rating, Wheat [9, 21]: 0 | Plant response rating, Crabgrass ([10]; Rate 62 g/ha, Postemergence): 3 | Crabgrass plant response rating ([10]; Rate 62 g/ha): 2 | Plant response rating, Crabgrass ([10]; Rate 125 g/ha, Postemergence): 9 | Crabgrass plant response rating ([10]; Rate 125 g/ha): 4 | Plant response rating, Crabgrass ([10]; Rate 250 g/ha, Postemergence): 10 | Plant response rating, Crabgrass [10, 21]: 10 | Wild oats plant response rating ([11]; Rate 62 g/ha, Postemergence): 4 | Wild oats plant response rating ([11]; Rate 62 g/ha, Preemergence): 3 | Wild oats plant response rating ([11]; Rate 125 g/ha, Postemergence): 5 | Plant response rating, Wild oats ([11]; Rate 125 g/ha, Preemergence): 3 | Plant response rating, Wild oats ([11]; Rate 250 g/ha, Postemergence): 6 | Plant response rating, Wild oats [11, 21]: 4 | Plant response rating, Velvetleaf ([12]; Rate 62 g/ha, Postemergence): 3 | Velvetleaf plant response rating ([12]; Rate 62 g/ha, Preemergence): 1 | Velvetleaf plant response rating ([12]; Rate 125 g/ha, Postemergence): 4 | Plant response rating, Velvetleaf ([12]; Rate 125 g/ha, Preemergence): 1 | Plant response rating, Velvetleaf ([12]; Rate 250 g/ha, Postemergence): 8 | Plant response rating, Velvetleaf [12, 21]: 2 | Plant response rating, Giant foxtail ([13]; Rate 62 g/ha, Postemergence): 3 | Giant foxtail plant response rating ([13]; Rate 62 g/ha, Preemergence): 4 | Giant foxtail plant response rating ([13]; Rate 125 g/ha, Postemergence): 4 | Giant foxtail plant response rating ([13]; Rate 125 g/ha, Preemergence): 9 | Plant response rating, Giant foxtail ([13]; Rate 250 g/ha, Postemergence): 9 | Plant response rating, Giant foxtail [13, 21]: 10 | Plant response rating, Bedstraw ([14]; Rate 62 g/ha, Postemergence): 2 | Bedstraw plant response rating ([14]; Rate 62 g/ha): 2 | Plant response rating, Bedstraw ([14]; Rate 125 g/ha, Postemergence): 8 | Bedstraw plant response rating ([14]; Rate 125 g/ha): 4 | Plant response rating, Bedstraw ([14]; Rate 250 g/ha, Postemergence): 8 | Plant response rating, Bedstraw [14, 21]: 8 | Plant response rating, Morningglory ([15]; Rate 62 g/ha, Postemergence): 3 | Morningglory plant response rating ([15]; Rate 62 g/ha, Preemergence): 2 | Morningglory plant response rating ([15]; Rate 125 g/ha, Postemergence): 3 | Morningglory plant response rating ([15]; Rate 125 g/ha, Preemergence): 2 | Plant response rating, Morningglory ([15]; Rate 250 g/ha, Postemergence): 3 | Plant response rating, Morningglory [15, 21]: 3 | Plant response rating, Nutsedge ([16]; Rate 62 g/ha, Postemergence): 0 | Nutsedge plant response rating ([16]; Rate 62 g/ha, Preemergence): 0 | Nutsedge plant response rating ([16]; Rate 125 g/ha, Postemergence): 3 | Nutsedge plant response rating ([16]; Rate 125 g/ha, Preemergence): 0 | Plant response rating, Nutsedge [16, 21]: 0 | Plant response rating, Rice [17, 22]: 2 | Rice plant response rating [17, 23]: 2 | Plant response rating, Rice [17, 24]: 3 | Plant response rating, S. Flatsedge [18, 22]: 5 | S. Flatsedge plant response rating [18, 23]: 8 | Plant response rating, S. Flatsedge [18, 24]: 8 | Plant response rating, Barnyardgrass [19, 22]: 3 | Plant response rating, Barnyardgrass [19, 25]: 4 | Plant response rating, Barnyardgrass [19, 24]: 5 | Plant response rating, Ducksalad [20, 22]: 2 | Plant response rating, Ducksalad [20, 25]: 3 | Plant response rating, Ducksalad [20, 24]: 6
